Values after ≈ are worked out from the molar mass of the structure shown.
Legend:
Format in all cases: functional
[1] = system: Bacillus subtilis; test: Antimicrobial activity against Bacillus subtilis MTCC 430 assessed as diameter of growth zone inhibition by agar streak dilution method; also: test concentration or dose not given here
[2] = system: Bacillus subtilis; test: Antimicrobial activity against Bacillus subtilis MTCC 430 assessed as growth inhibition by agar streak dilution method
[3] = system: Escherichia coli; test: Antimicrobial activity against Escherichia coli MTCC 739 assessed as growth inhibition by agar streak dilution method
[4] = system: Candida albicans; test: Antimicrobial activity against Candida albicans MTCC 183 assessed as growth inhibition by agar streak dilution method
[5] = system: Candida albicans; test: Antimicrobial activity against Candida albicans MTCC 183 assessed as diameter of growth zone inhibition by agar streak dilution method; also: test concentration or dose not given here
[6] = system: Staphylococcus aureus; test: Antimicrobial activity against Staphylococcus aureus MTCC 96 assessed as diameter of growth zone inhibition by agar streak dilution method; also: test concentration or dose not given here
[7] = system: Staphylococcus aureus; test: Antimicrobial activity against Staphylococcus aureus MTCC 96 assessed as growth inhibition by agar streak dilution method
[8] = system: Mycobacterium tuberculosis; test: Antitubercular activity against Mycobacterium tuberculosis H37Rv assessed as growth inhibition by BACTEC MGIT method
[9] = system: Aspergillus niger; test: Antimicrobial activity against Aspergillus niger MTCC 282 assessed as growth inhibition by agar streak dilution method
[10] = system: Escherichia coli; test: Antimicrobial activity against Escherichia coli MTCC 739 assessed as diameter of growth zone inhibition by agar streak dilution method; also: test concentration or dose not given here
[11] = system: Pseudomonas aeruginosa; test: Antimicrobial activity against Pseudomonas aeruginosa MTCC 741 assessed as growth inhibition by agar streak dilution method
[12] = system: Pseudomonas aeruginosa; test: Antimicrobial activity against Pseudomonas aeruginosa MTCC 741 assessed as diameter of growth zone inhibition by agar streak dilution method; also: test concentration or dose not given here
[13] = system: Aspergillus niger; test: Antimicrobial activity against Aspergillus niger MTCC 282 assessed as diameter of growth zone inhibition by agar streak dilution method; also: test concentration or dose not given here

Compound | diameter of the inhibition zone (DIZ) [1] | MIC [2] | MIC [3] | MIC [4] | diameter of the inhibition zone (DIZ) [5] | diameter of the inhibition zone (DIZ) [6] | MIC [7] | MIC [8] | MIC [9] | diameter of the inhibition zone (DIZ) [10] | MIC [11] | diameter of the inhibition zone (DIZ) [12] | diameter of the inhibition zone (DIZ) [13]
Cc1ccc(N2C(=O)CSC2c2cc3ccccc3nc2S)cc1 (stereo unspecified) | 20 mm | 100 mg/L (≈ 284 µM) | 100 mg/L (≈ 284 µM) | 100 mg/L (≈ 284 µM) | 15 mm | 20 mm | 100 mg/L (≈ 284 µM) | 250 mg/L (≈ 709 µM) | 100 mg/L (≈ 284 µM) | 19 mm | 100 mg/L (≈ 284 µM) | 19 mm | 17 mm
O=C1CSC(c2cc3ccccc3nc2S)N1c1cccc(Cl)c1 (stereo unspecified) | 25 mm | 3.12 mg/L (≈ 8.37 µM) | 50 mg/L (≈ 134 µM) | 62.5 mg/L (≈ 168 µM) | 22 mm | 24 mm | 6.25 mg/L (≈ 16.8 µM) | 125 mg/L (≈ 335 µM) | 50 mg/L (≈ 134 µM) | 22 mm | 12.5 mg/L (≈ 33.5 µM) | 25 mm | 25 mm
O=C1C(Cl)C(c2cc3ccccc3nc2S)N1c1cccc(Cl)c1 (stereo unspecified) | 25 mm | 12.5 mg/L (≈ 33.3 µM) | 62.5 mg/L (≈ 167 µM) | 62.5 mg/L (≈ 167 µM) | 21 mm | 24 mm | 12.5 mg/L (≈ 33.3 µM) | 125 mg/L (≈ 333 µM) | 50 mg/L (≈ 133 µM) | 22 mm | 62.5 mg/L (≈ 167 µM) | 23 mm | 25 mm
O=C1C(Cl)C(c2cc3ccccc3nc2S)N1c1ccccc1 (stereo unspecified) | 17 mm | 100 mg/L (≈ 293 µM) | 100 mg/L (≈ 293 µM) | 100 mg/L (≈ 293 µM) | <10 mm | 17 mm | 100 mg/L (≈ 293 µM) | 1000 mg/L (≈ 2930 µM) | 100 mg/L (≈ 293 µM) | <10 mm | 100 mg/L (≈ 293 µM) | <10 mm | <10 mm
O=C1C(Cl)C(c2cc3ccccc3nc2S)N1c1ccc(F)cc1 (stereo unspecified) | 25 mm | 6.25 mg/L (≈ 17.4 µM) | 12.5 mg/L (≈ 34.8 µM) | 25 mg/L (≈ 69.7 µM) | 24 mm | 26 mm | 6.25 mg/L (≈ 17.4 µM) | 62.5 mg/L (≈ 174 µM) | 12.5 mg/L (≈ 34.8 µM) | 24 mm | 25 mg/L (≈ 69.7 µM) | 23 mm | 25 mm
O=C1CSC(c2cc3ccccc3nc2S)N1c1cccc([N+](=O)[O-])c1 (stereo unspecified) | 22 mm | 50 mg/L (≈ 130 µM) | 6.25 mg/L (≈ 16.3 µM) | 100 mg/L (≈ 261 µM) | 20 mm | 22 mm | 50 mg/L (≈ 130 µM) | 125 mg/L (≈ 326 µM) | 25 mg/L (≈ 65.2 µM) | 24 mm | 25 mg/L (≈ 65.2 µM) | 23 mm | 23 mm
Cc1cccc(N2C(=O)CSC2c2cc3ccccc3nc2S)c1 (stereo unspecified) | 19 mm | 100 mg/L (≈ 284 µM) | 100 mg/L (≈ 284 µM) | 100 mg/L (≈ 284 µM) | 19 mm | 21 mm | 62.5 mg/L (≈ 177 µM) | 500 mg/L (≈ 1420 µM) | 100 mg/L (≈ 284 µM) | 19 mm | 100 mg/L (≈ 284 µM) | 18 mm | 20 mm

Reference: ChEMBL document CHEMBL3044671, “Synthesis and in vitro antimicrobial and anti-tubercular evaluation of some quinoline-based azitidinone and thiazolidinone analogues” (2013)
